Among the data in PubChem BioAssay AID330 (DTP/NCI, 2004) are T/C values, retold here.

Values joined by “and” are separate entries in the source; they are usually repeats but may differ in a detail not shown here. Equal entries are not always repeated. Toxic doses and inconclusive results are not listed.

In this assay the test system is P388 leukemia ip, CD2F1 mice, survival T/C. The experiment in a line: NCI In Vivo Anticancer Drug Screen. Data for tumor model P388 Leukemia (intraperitoneal) in CD2F1 (CDF1) mice. The following applies: endpoint: median survival time, higher = longer survival. The method in brief: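 Mice carrying the transplanted tumor received test compound or vehicle. Survival was recorded in each group, and the value is the treated-group measurement divided by that of the vehicle-treated control group.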

[1] abbreviates: dose: 50.0 mg/kg/injection, schedule: Q01DX009 (ip), vehicle: saline with Tween-80.
The mark [2] stands for this setting: dose: 100.0 mg/kg/injection, schedule: Q01DX009 (ip), vehicle: saline with Tween-80.
Setting [3] is: dose: 200.0 mg/kg/injection, schedule: Q01DX009 (ip), vehicle: saline with Tween-80.
Where [4] appears, read: dose: 50.0 mg/kg/injection, schedule: Q01DX005 (ip), vehicle: Klucel (hydroxypropylcellulose) (HPC).
[5] abbreviates: dose: 100.0 mg/kg/injection, schedule: Q01DX005 (ip), vehicle: Klucel (hydroxypropylcellulose) (HPC).
Setting [6] is: dose: 200.0 mg/kg/injection, schedule: Q01DX005 (ip), vehicle: Klucel (hydroxypropylcellulose) (HPC).
Setting [7] is: dose: 50.0 mg/kg/injection, schedule: Q01DX009 (ip), vehicle: saline.
Where [8] appears, read: dose: 100.0 mg/kg/injection, schedule: Q01DX009 (ip), vehicle: saline.
Where [9] appears, read: dose: 200.0 mg/kg/injection, schedule: Q01DX009 (ip), vehicle: saline.
The mark [10] stands for this setting: dose: 25.0 mg/kg/injection, schedule: Q01DX005 (ip), vehicle: Klucel (hydroxypropylcellulose) (HPC).
[11] abbreviates: dose: 50.0 mg/kg/injection, schedule: Q01DX005 (ip), vehicle: saline with Tween-80.
Setting [12] is: dose: 100.0 mg/kg/injection, schedule: Q01DX005 (ip), vehicle: saline with Tween-80.
[13] abbreviates: dose: 200.0 mg/kg/injection, schedule: Q01DX005 (ip), vehicle: saline with Tween-80.
Where [14] appears, read: dose: 60.0 mg/kg/injection, schedule: Q01DX005 (ip), vehicle: saline with Tween-80.
[15] abbreviates: dose: 120.0 mg/kg/injection, schedule: Q01DX005 (ip), vehicle: saline with Tween-80.
The mark [16] stands for this setting: dose: 240.0 mg/kg/injection, schedule: Q01DX005 (ip), vehicle: saline with Tween-80.
[17] abbreviates: dose: 60.0 mg/kg/injection, schedule: Q01DX005 (ip), vehicle: saline.
Setting [18] is: dose: 120.0 mg/kg/injection, schedule: Q01DX005 (ip), vehicle: saline.

In the case of `O=C(NC1c2ccccc2CCc2ccccc21)C(F)(F)F`, the T/C is, setting by setting: (dose: 12.5 mg/kg/injection, schedule: Q01DX009 (ip), vehicle: saline with Tween-80) 86 % of control; (dose: 25.0 mg/kg/injection, schedule: Q01DX009 (ip), vehicle: saline with Tween-80) 117 % of control; under setting [1], 90 % of control; under setting [2], 86 % of control; under setting [3], 94 % of control.
Take `CC1(C)c2ccccc2-c2nc3ccccc3c(N)c2C1O` (centres undefined): the T/C reads like this: under setting [4], 104 % of control; under setting [5], 100 % of control; under setting [6], 104 % of control.
Take `CCC1CCCCN1Cc1ccccc1` (centres undefined): the T/C by setting is: (dose: 60.0 mg/kg/injection, schedule: Q01DX005 (ip), vehicle: Klucel (hydroxypropylcellulose) (HPC)) 108 % of control; (dose: 120.0 mg/kg/injection, schedule: Q01DX005 (ip), vehicle: Klucel (hydroxypropylcellulose) (HPC)) 110 % of control.
Consider `COCCOC(=O)NCP(Cl)(CNC(=O)OCCOC)(CNC(=O)OCCOC)CNC(=O)OCCOC`, for which the T/C is 100 % of control under setting [7], 99 % of control under setting [8] and 105 % of control under setting [9].
Take `Cc1cc2cc3cc(C)c(N)cc3nc2cc1N`: the T/C was 120 % of control and 219 % of control (dose: 6.25 mg/kg/injection, schedule: Q01DX009 (ip), vehicle: saline with Tween-80); 113 % of control (dose: 12.5 mg/kg/injection, schedule: Q01DX009 (ip), vehicle: saline); 110 % of control (dose: 25.0 mg/kg/injection, schedule: Q01DX009 (ip), vehicle: saline); 97 % of control under setting [1]; 114 % of control under setting [7].
`C1OC1CN1CCN(CC2CO2)CC1` (centres undefined): the T/C by setting is: (dose: 4.0 mg/kg/injection, schedule: Q01DX009 (ip), vehicle: saline) 124 % of control; (dose: 8.0 mg/kg/injection, schedule: Q01DX009 (ip), vehicle: saline) 150 % of control; (dose: 16.0 mg/kg/injection, schedule: Q01DX009 (ip), vehicle: saline) 196 % of control.
Regarding `CN1CC[N+](C)=C1c1nc2ccccc2n1C`, the T/C (dose: 12.5 mg/kg/injection, schedule: Q01DX009 (ip), vehicle: suspension in saline) was 105 % of control; the T/C (dose: 25.0 mg/kg/injection, schedule: Q01DX009 (ip), vehicle: suspension in saline) was 117 % of control; the T/C (dose: 50.0 mg/kg/injection, schedule: Q01DX009 (ip), vehicle: suspension in saline) is 118 % of control.
On to `CC1CN(C(=S)NNC(C)c2cc3ccccc3cn2)CC(C)O1` (centres undefined), for which the T/C (dose: 12.5 mg/kg/injection, schedule: Q01DX005 (ip), vehicle: saline with Tween-80) was 97 % of control and the T/C (dose: 25.0 mg/kg/injection, schedule: Q01DX005 (ip), vehicle: saline with Tween-80) is 112 % of control.
Consider `CC(=O)OC1=C(C)C2=C3OC(=O)C(C)=C3CC[C@@]2(C)[C@@H](Cl)[C@@H]1Cl`, for which the T/C is 104 % of control and 113 % of control under setting [10]; 104 % of control and 108 % of control and 111 % of control under setting [4]; 114 % of control and 117 % of control and 121 % of control under setting [5]; 108 % of control and 119 % of control and 120 % of control under setting [6].
For `O=C1CCCCCCCCCCC1Br` (centres undefined), the T/C was 100 % of control under setting [2]; 99 % of control under setting [3]; 105 % of control (dose: 400.0 mg/kg/injection, schedule: Q01DX009 (ip), vehicle: saline with Tween-80).
With `COc1ccc2c(N)cccc2c1`, the T/C was 92 % of control under setting [7], 88 % of control under setting [8] and 95 % of control under setting [9].
As for `COc1ccc2c(c1)N(S(=O)(=O)c1ccc(C)cc1)C/C(=C\N1CCN(c3ccccc3)CC1)C2=O`, the T/C under setting [4] was 96 % of control, the T/C under setting [5] is 98 % of control and the T/C under setting [6] was 91 % of control.
Take `COc1ccc2nc(-c3ccccc3)cc(C(=O)/C=C/c3ccc(N(C)C)cc3)c2c1`: the T/C was 89 % of control under setting [11], 86 % of control under setting [12] and 89 % of control under setting [13].
For the compound `SC1CCCN(Cc2ccccc2)C1` (centres undefined), the T/C was 117 % of control under setting [11], 108 % of control under setting [12] and 110 % of control under setting [13].
In the case of `COC(=O)C1C2CC3c4c(c5ccc(OC)cc5n4[N+](=O)[O-])CCN3CC2CC(OC(=O)c2cc(OC)c(OC)c(OC)c2)C1OC` (centres undefined), the T/C by setting is: (dose: 12.5 mg/kg/injection, schedule: Q01DX005 (ip), vehicle: Klucel (hydroxypropylcellulose) (HPC)) 96 % of control; under setting [10], 98 % of control; under setting [4], 104 % of control; under setting [5], 114 % of control; under setting [6], 88 % of control.
Take `BrCC1C[n+]2c(cc(-c3ccccc3)cc2-c2ccccc2)S1` (centres undefined): the T/C (dose: 3.75 mg/kg/injection, schedule: Q01DX005 (ip), vehicle: Klucel (hydroxypropylcellulose) (HPC)) was 100 % of control and the T/C (dose: 7.5 mg/kg/injection, schedule: Q01DX005 (ip), vehicle: Klucel (hydroxypropylcellulose) (HPC)) was 99 % of control.
For the compound `CC(=O)c1ccc(C(C)=O)cc1`, the T/C was 101 % of control under setting [7], 95 % of control under setting [8] and 109 % of control under setting [9].
`NC(=O)NC1(N)C(=O)NC(=O)NC1=O`: the T/C under setting [14] is 94 % of control, the T/C under setting [15] was 95 % of control and the T/C under setting [16] was 93 % of control.
As to `Cc1nn(-c2ccccc2)nc1C(=O)Nc1ccccc1C(=O)NCC1CC1`, the T/C runs as follows: under setting [14], 91 % of control; under setting [15], 90 % of control and 94 % of control and 96 % of control; under setting [16], 103 % of control and 95 % of control and 96 % of control.
`N#CCCC12CCC(=O)N1Cc1ccccc1C2=O` (centres undefined): the T/C is 105 % of control under setting [17]; 123 % of control under setting [18]; 123 % of control (dose: 240.0 mg/kg/injection, schedule: Q01DX005 (ip), vehicle: saline).
As for `C1COCCOCCOCCO1.[Cl][Sn]([Cl])([Cl])[Cl]`, the T/C (dose: 100.0 mg/kg/injection, schedule: Q01DX001 (ip), vehicle: Klucel (hydroxypropylcellulose) (HPC)) is 98 % of control and the T/C (dose: 200.0 mg/kg/injection, schedule: Q01DX001 (ip), vehicle: Klucel (hydroxypropylcellulose) (HPC)) is 90 % of control.
Regarding `NC(=O)C1CCCN1C(=O)C1CCCN(Cc2ccc(CN3CCCC(C(=O)N4CCCC4C(N)=O)C3)cc2)C1` (centres undefined), the T/C is 106 % of control under setting [17] and 97 % of control under setting [18].
Regarding `CN(C)c1ccc(/C=C/C=C2C(=O)NC(=S)NC2=O)cc1`, the T/C reads like this: (dose: 100.0 mg/kg/injection, schedule: Q04DX002 (ip), vehicle: Klucel (hydroxypropylcellulose) (HPC)) 89 % of control; (dose: 200.0 mg/kg/injection, schedule: Q04DX002 (ip), vehicle: Klucel (hydroxypropylcellulose) (HPC)) 92 % of control; (dose: 400.0 mg/kg/injection, schedule: Q04DX002 (ip), vehicle: Klucel (hydroxypropylcellulose) (HPC)) 87 % of control.
For the compound `CCN(CC)CCCC(Nc1c2ccc(Cl)cc2nc2ccc(OC)cc12)c1cccc2ccccc12` (centres undefined), the T/C was 103 % of control (dose: 6.0 mg/kg/injection, schedule: Q01DX005 (ip), vehicle: Klucel (hydroxypropylcellulose) (HPC)); 106 % of control (dose: 12.0 mg/kg/injection, schedule: Q01DX005 (ip), vehicle: Klucel (hydroxypropylcellulose) (HPC)); 106 % of control under setting [10].
Turning to `O=NN(CCF)C(=O)NC12CC3CC(CC(C3)C1)C2`, the T/C was 175 % of control (dose: 22.0 mg/kg/injection, schedule: Q04DX003 (ip), vehicle: saline with Tween-80); 195 % of control (dose: 33.0 mg/kg/injection, schedule: Q04DX003 (ip), vehicle: saline with Tween-80); 225 % of control (dose: 50.0 mg/kg/injection, schedule: Q04DX003 (ip), vehicle: saline with Tween-80); 240 % of control (dose: 75.0 mg/kg/injection, schedule: Q04DX003 (ip), vehicle: saline with Tween-80); 259 % of control (dose: 100.0 mg/kg/injection, schedule: Q04DX003 (ip), vehicle: Klucel (hydroxypropylcellulose) (HPC)).
